Reference: a compilation of properties of binary mixtures (doi:10.1016/j.fluid.2015.01.011)

Experiment: xn = mol fraction of the nth substance listed
Conditions: 100 kPa

CC[n+]1ccn(C)c1.N#C[N-]C#N + CC[n+]1ccn(C)c1.N#C[S-]
Conditions	electrical conductivity, x2 = 0 [S/m]	electrical conductivity, x2 = 0.2585 [S/m]	electrical conductivity, x2 = 0.5112 [S/m]	electrical conductivity, x2 = 0.7603 [S/m]	viscosity, x2 = 0 [mPa·s]	viscosity, x2 = 0.2585 [mPa·s]	viscosity, x2 = 0.5112 [mPa·s]	viscosity, x2 = 0.7603 [mPa·s]
298.15 K	2.84	–	2.51	2.41	14.78	–	18.27	20.62
303.15 K	3.22	3.05	2.89	2.76	12.87	14.18	15.74	17.66
308.15 K	3.63	–	3.27	3.14	11.3	–	13.7	15.3
313.15 K	4.06	3.87	3.67	3.56	9.76	10.72	11.78	13.12
318.15 K	–	4.33	4.14	–	–	9.75	10.66	–
323.15 K	5.02	4.81	–	4.48	8.01	8.73	–	10.47
328.15 K	–	–	–	–	7.24	–	8.54	9.37
333.15 K	–	–	–	–	–	6.92	7.51	8.25
338.15 K	–	–	–	–	6	–	7.01	7.64
343.15 K	–	–	–	–	5.51	5.94	6.4	6.95
348.15 K	–	–	–	–	5.06	5.47	–	6.36
353.15 K	–	–	–	–	4.52	4.89	5.25	–

CC[n+]1ccn(C)c1.N#C[S-] + [N-]=C=S.[NH4+]
x2 = 0
Conditions	electrical conductivity [S/m]	viscosity [mPa·s]
298.15 K	2.32	23.1
303.15 K	2.67	19.68
308.15 K	3.06	16.97
313.15 K	3.47	14.54
318.15 K	3.92	12.98
328.15 K	–	10.25
333.15 K	–	9.02
338.15 K	–	8.3
343.15 K	–	7.53

CC[n+]1ccn(C)c1.N#C[S-] + CCOS(=O)(=O)[O-].CC[n+]1ccn(C)c1
Conditions	electrical conductivity [S/m]	viscosity [mPa·s]
298.15 K, x1 = 0.199	0.421	96.4
298.15 K, x1 = 0.32	0.569	83.5
298.15 K, x1 = 0.429	0.745	65.3
298.15 K, x1 = 0.899	1.84	27.8
298.15 K, x1 = 0.9505	2.1	25
298.15 K, x1 = 1	2.32	23.1
303.15 K, x1 = 0.199	0.512	76.1
303.15 K, x1 = 0.32	0.696	66.5
303.15 K, x1 = 0.429	0.809	52.7
303.15 K, x1 = 0.67	1.38	35.8
303.15 K, x1 = 0.899	2.15	23.5
303.15 K, x1 = 0.9505	2.29	21.2
303.15 K, x1 = 1	2.67	19.68
308.15 K, x1 = 0.32	0.842	53.9
308.15 K, x1 = 0.429	1.09	43.1
308.15 K, x1 = 0.67	1.62	30
308.15 K, x1 = 0.899	2.5	20.07
308.15 K, x1 = 0.9505	2.79	18.2
308.15 K, x1 = 1	3.06	16.97
313.15 K, x1 = 0.199	0.733	61.2
313.15 K, x1 = 0.32	1	53.9
313.15 K, x1 = 0.67	1.88	30
313.15 K, x1 = 0.899	2.85	20.07
313.15 K, x1 = 0.9505	3.18	18.2
313.15 K, x1 = 1	3.47	16.97
318.15 K, x1 = 0.199	0.861	50.1
318.15 K, x1 = 0.32	1.19	44.4
318.15 K, x1 = 0.429	1.29	–
318.15 K, x1 = 0.67	2.18	–
318.15 K, x1 = 0.899	3.25	–
318.15 K, x1 = 1	3.92	14.54
323.15 K, x1 = 0.199	1.02	34.7
323.15 K, x1 = 0.32	1.38	31.1
323.15 K, x1 = 0.429	1.52	25.7
323.15 K, x1 = 0.67	2.49	18.78
323.15 K, x1 = 0.9505	4.04	12.2
323.15 K, x1 = 1	4.38	11.49
328.15 K, x1 = 0.199	–	29.5
328.15 K, x1 = 0.32	–	26.6
328.15 K, x1 = 0.67	–	16.38
328.15 K, x1 = 0.899	–	11.78
328.15 K, x1 = 0.9505	–	10.86
328.15 K, x1 = 1	–	10.25
333.15 K, x1 = 0.199	–	25.3
333.15 K, x1 = 0.429	–	19.14
333.15 K, x1 = 0.67	–	14.35
333.15 K, x1 = 0.899	–	10.37
333.15 K, x1 = 0.9505	–	9.56
333.15 K, x1 = 1	–	9.02
338.15 K, x1 = 0.199	–	21.85
338.15 K, x1 = 0.32	–	19.89
338.15 K, x1 = 0.429	–	16.74
338.15 K, x1 = 0.67	–	12.76
338.15 K, x1 = 0.9505	–	8.75
338.15 K, x1 = 1	–	8.3
343.15 K, x1 = 0.199	–	19.06
343.15 K, x1 = 0.67	–	11.37
343.15 K, x1 = 0.899	–	8.53
343.15 K, x1 = 0.9505	–	7.92
343.15 K, x1 = 1	–	7.53
348.15 K, x1 = 0.199	–	16.75
348.15 K, x1 = 0.32	–	15.38
348.15 K, x1 = 0.429	–	13.08
348.15 K, x1 = 0.67	–	10.21
348.15 K, x1 = 0.899	–	7.74
348.15 K, x1 = 1	–	6.87
353.15 K, x1 = 0.199	–	14.87
353.15 K, x1 = 0.32	–	13.71
353.15 K, x1 = 0.429	–	11.68
353.15 K, x1 = 0.67	–	9.16
353.15 K, x1 = 0.899	–	6.96
353.15 K, x1 = 0.9505	–	6.48
353.15 K, x1 = 1	–	6.17

CCOS(=O)(=O)[O-].CC[n+]1ccn(C)c1 + CC[n+]1ccn(C)c1.N#C[S-]
x2 = 0
Conditions	electrical conductivity [S/m]	viscosity [mPa·s]
298.15 K	0.308	96.9
303.15 K	0.382	76.5
308.15 K	0.469	61.6
313.15 K	0.57	–
318.15 K	0.678	–
323.15 K	0.871	35
328.15 K	–	29.7
333.15 K	–	25.6
338.15 K	–	22.04
343.15 K	–	19.23
348.15 K	–	16.89

CC[n+]1ccn(C)c1.N#C[S-] + CC[n+]1ccn(C)c1.N#C[N-]C#N
x1 = 1
Conditions	electrical conductivity [S/m]	viscosity [mPa·s]
298.15 K	2.32	23.1
303.15 K	2.67	19.68
308.15 K	3.06	16.97
313.15 K	3.47	14.54
323.15 K	4.38	11.49
333.15 K	–	9.02
348.15 K	–	6.87
353.15 K	–	6.17

[N-]=C=S.[NH4+] + CC[n+]1ccn(C)c1.N#C[S-]
Conditions	electrical conductivity, x1 = 0.039 [S/m]	electrical conductivity, x1 = 0.099 [S/m]	electrical conductivity, x1 = 0.1395 [S/m]	viscosity, x1 = 0.039 [mPa·s]	viscosity, x1 = 0.099 [mPa·s]	viscosity, x1 = 0.1395 [mPa·s]
298.15 K	2.07	2.05	1.86	25.9	29.9	31.6
303.15 K	2.38	2.37	2.17	22	25.2	26.5
308.15 K	2.72	2.72	2.5	18.84	21.4	22.5
313.15 K	–	3.11	2.88	–	18.21	19.1
318.15 K	–	3.52	–	–	16	–
323.15 K	3.97	3.98	–	12.59	14.03	–
328.15 K	–	–	–	–	12.4	12.88
333.15 K	–	–	–	9.85	–	11.33
338.15 K	–	–	–	9.01	9.9	10.24
343.15 K	–	–	–	8.16	8.91	–
348.15 K	–	–	–	7.42	–	8.32
353.15 K	–	–	–	6.68	–	–
